{"source": "ChEMBL document CHEMBL1155939", "about": "“Baicalin, a prodrug able to reach the CNS, is a prolyl oligopeptidase inhibitor” (Bioorg Med Chem, 2008)"}
{"target": "T1, Prolyl endopeptidase (Homo sapiens, UniProt P48147)", "T1 sequence (P48147 whole entry)": "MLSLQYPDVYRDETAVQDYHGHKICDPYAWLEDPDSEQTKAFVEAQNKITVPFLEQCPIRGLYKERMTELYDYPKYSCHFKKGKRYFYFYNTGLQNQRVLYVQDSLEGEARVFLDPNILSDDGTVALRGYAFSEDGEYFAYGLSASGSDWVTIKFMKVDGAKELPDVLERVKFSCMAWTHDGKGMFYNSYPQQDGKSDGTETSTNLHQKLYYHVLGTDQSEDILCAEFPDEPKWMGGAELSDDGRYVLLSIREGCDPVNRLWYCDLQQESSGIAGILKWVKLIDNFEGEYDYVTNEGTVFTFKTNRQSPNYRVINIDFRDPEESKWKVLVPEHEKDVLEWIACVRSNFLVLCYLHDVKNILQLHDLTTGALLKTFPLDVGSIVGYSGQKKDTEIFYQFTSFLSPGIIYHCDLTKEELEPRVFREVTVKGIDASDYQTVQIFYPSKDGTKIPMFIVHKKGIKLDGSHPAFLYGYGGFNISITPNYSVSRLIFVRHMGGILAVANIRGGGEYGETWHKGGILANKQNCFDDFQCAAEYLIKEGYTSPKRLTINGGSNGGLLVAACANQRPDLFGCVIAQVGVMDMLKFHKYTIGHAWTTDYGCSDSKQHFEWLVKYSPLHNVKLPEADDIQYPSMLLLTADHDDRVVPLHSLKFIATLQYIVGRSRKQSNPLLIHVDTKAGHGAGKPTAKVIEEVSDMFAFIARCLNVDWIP", "experiment": "Inhibition of human brain prolyl oligopeptidase expressed in Escherichia coli", "units": {"IC50": "µM"}}
{"smiles": "C[C@@H]1O[C@@H](OC[C@H]2O[C@@H](Oc3c(-c4ccc(O)c(O)c4)oc4cc(O)cc(O)c4c3=O)[C@H](O)[C@@H](O)[C@@H]2O)[C@H](O)[C@H](O)[C@H]1O", "note": "[RUTIN]", "IC50": "> 200"}
{"smiles": "O=c1c(O)c(-c2ccc(O)c(O)c2)oc2cc(O)cc(O)c12", "note": "[QUERCETIN]", "IC50": 13}
{"smiles": "O=c1c(O)c(-c2ccc(O)cc2)oc2cc(O)cc(O)c12", "note": "[KAEMPFEROL]", "IC50": "> 200"}
{"smiles": "O=c1c(O)c(-c2ccccc2)oc2cc(O)ccc12", "note": "[3,7-DIHYDROXYFLAVONE]", "IC50": "> 200"}
